Experimental data as given in paper PMC6026185 (Scientific Reports, 2018).
“Also recorded” adds a separate entry of the source. Like-named read-outs stand apart in the source and are kept apart here.

Experiments:
hNKCC1A = molecular target: T1, hNKCC1A (Homo sapiens, UniProt P55011); assay: 86Rb+ uptake in hNKCC1A-expressing Xenopus laevis oocytes; type: cell-based; settings: for IC50 / IC50 for hNKCC1A, IC50 (µM) (range): 86Rb+ uptake, Xenopus oocytes, 5 min, corrected for uninjected oocytes, median and range of 3–7 experiments; for Ratio hNKCC1A/ hNKCC1B: ratio of IC50s
T1 construct: Full-length NKCC1 (NKCC1A) comprises ~1200 amino acids; expressed in transfected cells; host or cells: Xenopus laevis oocytes injected with cRNA (pXOOM vector)
T1 sequence (P55011 1-1212): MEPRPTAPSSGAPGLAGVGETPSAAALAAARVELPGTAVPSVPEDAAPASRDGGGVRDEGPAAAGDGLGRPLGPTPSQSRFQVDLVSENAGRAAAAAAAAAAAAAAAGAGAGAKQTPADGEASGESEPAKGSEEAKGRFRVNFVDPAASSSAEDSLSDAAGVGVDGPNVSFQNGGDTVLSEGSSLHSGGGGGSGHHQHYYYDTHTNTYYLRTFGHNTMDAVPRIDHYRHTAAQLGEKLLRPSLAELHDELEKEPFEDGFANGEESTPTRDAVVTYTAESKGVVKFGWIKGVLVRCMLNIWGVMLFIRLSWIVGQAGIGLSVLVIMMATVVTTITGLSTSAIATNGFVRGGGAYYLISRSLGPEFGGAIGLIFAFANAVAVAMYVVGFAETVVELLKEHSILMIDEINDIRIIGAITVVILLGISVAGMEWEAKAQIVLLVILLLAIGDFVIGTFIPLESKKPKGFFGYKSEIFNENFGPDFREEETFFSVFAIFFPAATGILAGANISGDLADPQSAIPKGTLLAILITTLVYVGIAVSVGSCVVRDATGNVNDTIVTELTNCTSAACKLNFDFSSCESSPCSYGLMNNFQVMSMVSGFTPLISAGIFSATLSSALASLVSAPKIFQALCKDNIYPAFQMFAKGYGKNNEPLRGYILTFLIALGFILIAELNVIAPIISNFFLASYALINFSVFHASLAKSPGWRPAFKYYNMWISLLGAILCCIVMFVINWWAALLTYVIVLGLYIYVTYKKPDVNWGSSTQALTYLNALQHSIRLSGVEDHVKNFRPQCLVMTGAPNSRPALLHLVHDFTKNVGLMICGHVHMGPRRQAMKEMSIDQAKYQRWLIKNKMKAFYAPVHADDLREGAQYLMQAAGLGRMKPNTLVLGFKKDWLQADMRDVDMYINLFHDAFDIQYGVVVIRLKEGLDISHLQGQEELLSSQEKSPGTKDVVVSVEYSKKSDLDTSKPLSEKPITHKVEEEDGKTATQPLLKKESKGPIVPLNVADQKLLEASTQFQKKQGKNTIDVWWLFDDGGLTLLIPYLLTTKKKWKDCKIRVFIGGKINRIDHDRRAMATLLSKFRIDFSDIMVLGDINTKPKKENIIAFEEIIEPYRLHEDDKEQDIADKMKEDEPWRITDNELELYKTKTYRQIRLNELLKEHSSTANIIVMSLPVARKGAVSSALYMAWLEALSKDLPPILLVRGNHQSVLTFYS

hNKCC1B = molecular target: T2, hNKCC1B (Homo sapiens, UniProt P55011); assay: 86Rb+ uptake in hNKCC1B-expressing Xenopus laevis oocytes; type: cell-based; settings: 5 min, corrected for uninjected oocytes, median and range of 3–7 experiments
T2 construct: expressed in transfected cells; host or cells: Xenopus laevis oocytes injected with cRNA (pXOOM vector)
T2 sequence (P55011 1-1196 isoform P55011-3): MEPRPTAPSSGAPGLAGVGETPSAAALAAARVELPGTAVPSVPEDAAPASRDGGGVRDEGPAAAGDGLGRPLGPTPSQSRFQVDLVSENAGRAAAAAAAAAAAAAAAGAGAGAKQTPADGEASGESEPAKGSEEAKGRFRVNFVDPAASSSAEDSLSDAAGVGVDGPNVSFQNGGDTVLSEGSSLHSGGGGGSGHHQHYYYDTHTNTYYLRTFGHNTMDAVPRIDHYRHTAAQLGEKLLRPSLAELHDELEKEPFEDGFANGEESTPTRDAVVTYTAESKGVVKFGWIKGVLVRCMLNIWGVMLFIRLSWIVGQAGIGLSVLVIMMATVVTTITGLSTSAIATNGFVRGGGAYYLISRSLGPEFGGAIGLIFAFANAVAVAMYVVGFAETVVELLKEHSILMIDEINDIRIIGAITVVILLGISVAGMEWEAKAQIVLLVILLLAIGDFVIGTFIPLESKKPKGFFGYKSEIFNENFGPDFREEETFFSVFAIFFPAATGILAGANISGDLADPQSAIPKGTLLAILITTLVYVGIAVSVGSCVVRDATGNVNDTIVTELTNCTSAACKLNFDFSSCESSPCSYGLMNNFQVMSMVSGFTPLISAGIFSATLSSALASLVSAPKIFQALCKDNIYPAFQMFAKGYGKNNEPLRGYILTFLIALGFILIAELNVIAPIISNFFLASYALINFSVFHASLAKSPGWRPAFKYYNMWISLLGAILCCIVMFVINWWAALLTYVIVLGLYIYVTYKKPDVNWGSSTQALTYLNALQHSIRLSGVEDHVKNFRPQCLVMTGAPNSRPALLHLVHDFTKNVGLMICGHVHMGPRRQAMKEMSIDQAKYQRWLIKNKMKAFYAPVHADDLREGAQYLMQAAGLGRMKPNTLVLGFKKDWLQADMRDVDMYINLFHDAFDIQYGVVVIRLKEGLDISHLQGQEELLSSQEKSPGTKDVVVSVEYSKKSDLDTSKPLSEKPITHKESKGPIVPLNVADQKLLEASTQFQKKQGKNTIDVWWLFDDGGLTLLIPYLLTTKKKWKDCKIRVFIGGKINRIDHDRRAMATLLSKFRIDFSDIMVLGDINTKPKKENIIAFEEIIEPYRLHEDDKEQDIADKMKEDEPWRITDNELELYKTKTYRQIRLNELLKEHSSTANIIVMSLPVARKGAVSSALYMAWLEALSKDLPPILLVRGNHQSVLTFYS

NKCC2 [1] = system: NKCC2; design: method as in Greven[53]; settings: Rat kidney TAL; ref Greven[53]; cited from earlier work
[2] = in words, cited from earlier work
[3] = rats, cited from earlier work
[4] = design: method as in DrugBank database; settings: ref DrugBank database; cited from earlier work
[5] = design: method as in DrugBank database; settings: ref DrugBank database; cited from earlier work; remark: listed apart in the source
[6] = design: method as in ref [30] = [30]; 30. Reilly, R. F. & Jackson, E. K. Goodman & Gilman’s. The Pharmacological Basis of Therapeutics . 12th ed. Brunton, L. L., Chabner, B. A. & Knollmann, B. C. (eds), pp. 671–719 (McGraw-Hill, New York); settings: ref [30]; cited from earlier work
NKCC2 [7] = system: NKCC2; design: method as in ref Palfrey et al.[48]; Schlatter et al.[23]; Frelin et al.[49]; O’Grady et al.[50]; Glanville et al.[51]; Hannaert et al.[52]; settings: Rabbit kidney TAL; rat kidney TAL; NKCC2 isoforms not differentiated; ref Palfrey et al.[48]; Schlatter et al.[23]; Frelin et al.[49]; O’Grady et al.[50]; Glanville et al.[51]; Hannaert et al.[52]; cited from earlier work
NKCC1 = settings: Activated state, isoforms not differentiated, turkey erythrocytes, chick cardiac cells, winter flounder intestine, ref Palfrey et al.[48], Frelin et al.[49], O’Grady et al.[50], cited from earlier work
hNKCC2 isoform A = settings: Xenopus oocytes; ref Gillen et al.[55]; Carota et al.[56]; read-out: IC50 (µM) NKCC2 (hA); cited from earlier work
hNKCC2 isoform B = settings: Xenopus oocytes; ref Gillen et al.[55]; Carota et al.[56]; read-out: IC50 (µM) NKCC2 (hB); cited from earlier work
NKCC2 [8] = system: NKCC2; design: method as in Schlatter et al.[23]; settings: Rabbit kidney TAL; ref Schlatter et al.[23]; cited from earlier work
NKCC2 [9] = system: NKCC2; design: method as in Wittner et al.[54]; settings: Mouse and rabbit kidney TAL; ref Wittner et al.[54]; cited from earlier work
[10] = mIMCD-K2 cells, rat erythrocytes and thymocytes, Schlatter et al.[23], Glanville et al.[51], Hannaert et al.[52]

NS(=O)(=O)c1cc(-c2nnn[nH]2)c(NCc2cccs2)cc1Cl [Azosemide]
IC50 (hNKCC1A): 0.246 µM
Ratio hNKCC1A/ hNKCC1B (hNKCC1A): 1.25
IC50 (hNKCC1B): 0.197 µM
IC50 (NKCC2 [1]): 3 µM
plasma protein binding ([2]; ref [31]): highly bound to plasma proteins
brain levels ([3]; 30 min following i.v. 20 mg/kg, below detection limit, ref [32]): < 0.05 µg/g
pKa [4]: 7.38
Lipophilicity (logP) [5]: 2.38
clinical diuretic potency relative to furosemide [6]: about the same diuretic potency as furosemide

NS(=O)(=O)c1cc(C(=O)O)c(NCc2ccco2)cc1Cl [Furosemide]
IC50 (NKCC2 [7]): 3 to 7.1 µM
IC50 (NKCC1; [10]): 7 to 23 µM
IC50 (hNKCC2 isoform A): 15.1 µM
IC50 (hNKCC2 isoform B): 7.2 µM

Cc1cccc(C)c1NC(=O)c1cc(S(N)(=O)=O)c(Cl)cc1O [Xipamide, 4-chloro-5-sulfamoyl-2′,6′-salicyloxylidide]
IC50 (hNKCC1A): > 1750 µM
IC50 for hNKCC1A, IC50 (µM) (range) (hNKCC1A): did not inhibit; also recorded: inactive
IC50 (hNKCC1B): > 1750 µM
IC50 for hNKCC1B, IC50 (µM) (range) (hNKCC1B): did not inhibit; also recorded: inactive

NS(=O)(=O)c1cc(C(=O)NN2CC3C4CCC(C4)C3C2)ccc1Cl (stereo not drawn) [Tripamide]
IC50 (hNKCC1A): > 1000 µM
IC50 (hNKCC1B): > 1000 µM

NS(=O)(=O)c1cc(C(=O)O)cc(NCc2ccccc2)c1Oc1ccccc1 [Benzmetanide]
IC50 (NKCC1): 0.05 to 0.3 µM

COc1ccc(Cl)cc1C(=O)NCCc1ccc(S(=O)(=O)NC(=O)NC2CCCCC2)cc1 [Glybenclamide, 5-chloro-N-(2-{4-[(cyclohexylcarbamoyl)sulfamoyl]phenyl}ethyl)-2-methoxybenzamide]
IC50 (hNKCC1A): > 100 µM
IC50 for hNKCC1A, IC50 (µM) (range) (hNKCC1A; listed as glibenclamide): did not inhibit; also recorded: inactive
IC50 (hNKCC1B): > 100 µM
IC50 for hNKCC1B, IC50 (µM) (range) (hNKCC1B; listed as glibenclamide): did not inhibit; also recorded: inactive

CN=C1SCC(O)(c2ccc(Cl)c(S(N)(=O)=O)c2)N1C (stereo not drawn) [Tizolemide]
IC50 (NKCC2 [8]): > 100 µM

O=C(O)COc1ccc(C(=O)c2cccs2)c(Cl)c1Cl [Ticrynafen]
IC50 (hNKCC1A): 489 µM
Ratio hNKCC1A/ hNKCC1B (hNKCC1A): 0.275
IC50 (hNKCC1B): 1780 µM
IC50 (NKCC2 [8]): 410 µM

CN1C(=O)C(N2CCCCC2)S/C1=C/C(=O)O (stereo not drawn) [Ozolinon]
IC50 (NKCC2 [8]): 11 µM

CC1(c2ccccc2)Cc2cc(OCC(=O)O)c(Cl)c(Cl)c2C1=O (stereo not drawn) [Indacrinone]
IC50 (NKCC2 [8]): 12 µM

Cc1cccc(Nc2ccncc2S(=O)(=O)NC(=O)NC(C)C)c1 [Torasemide]
IC50 (hNKCC1A): 6.18 µM
Ratio hNKCC1A/ hNKCC1B (hNKCC1A): 0.755
IC50 (hNKCC1B): 8.19 µM
IC50 (NKCC2 [9]): 0.3 µM
plasma protein binding ([2]; ref [33]): highly bound to plasma proteins
brain:plasma concentration ratio ([3]; 30 min after i.v. 10 mg/kg, ref [34]): 0.00024
clinical diuretic potency relative to furosemide [6]: about 3 times

C=C(CC)C(=O)c1ccc(OCC(=O)O)c(Cl)c1Cl [Ethacrynic acid]
IC50 (hNKCC1A): 1680 µM
IC50 (hNKCC1B): 3070 µM
IC50 (NKCC2 [8]): 5.1 µM

NS(=O)(=O)c1cc(C(=O)O)cc(N2CCCC2)c1Oc1ccccc1 [Piretanide]
IC50 (hNKCC1A): 3.35 µM
Ratio hNKCC1A/ hNKCC1B (hNKCC1A): 2.02
IC50 (hNKCC1B): 1.66 µM
IC50 (NKCC2 [7]): 1 to 1.1 µM
IC50 (NKCC1; [10]): 0.5 to 3 µM

CC(c1ccc(Cl)c(Cl)c1)N1N=C(N)CC1=O (stereo not drawn) [Muzolimine]
IC50 (NKCC2 [8]): > 100 µM

CCOC(=O)/C=C1\SC(N2CCCCC2)C(=O)N1C (stereo not drawn) [Etozolin]
IC50 (NKCC2 [8]): > 100 µM
